Experimental data reported in patent publication US20260248833A1, “PYRIMIDINE NUCLEOSIDE TREATMENTS” (The Children`s Medical Center Corporation, priority 2022, published 2026).

What was measured:
Type in all cases: biochemical
[1] = target: T1, immunopurified T-free telomerase (Homo sapiens, UniProt O14746); experiment: Direct telomerase assay on immunopurified T-free telomerase
T1 construct: made in house; host or cells: TERC-null 293T cells, transient transfection; anti-HA magnetic bead immunopurification, enzyme used on beads
T1 sequence (O14746 whole entry): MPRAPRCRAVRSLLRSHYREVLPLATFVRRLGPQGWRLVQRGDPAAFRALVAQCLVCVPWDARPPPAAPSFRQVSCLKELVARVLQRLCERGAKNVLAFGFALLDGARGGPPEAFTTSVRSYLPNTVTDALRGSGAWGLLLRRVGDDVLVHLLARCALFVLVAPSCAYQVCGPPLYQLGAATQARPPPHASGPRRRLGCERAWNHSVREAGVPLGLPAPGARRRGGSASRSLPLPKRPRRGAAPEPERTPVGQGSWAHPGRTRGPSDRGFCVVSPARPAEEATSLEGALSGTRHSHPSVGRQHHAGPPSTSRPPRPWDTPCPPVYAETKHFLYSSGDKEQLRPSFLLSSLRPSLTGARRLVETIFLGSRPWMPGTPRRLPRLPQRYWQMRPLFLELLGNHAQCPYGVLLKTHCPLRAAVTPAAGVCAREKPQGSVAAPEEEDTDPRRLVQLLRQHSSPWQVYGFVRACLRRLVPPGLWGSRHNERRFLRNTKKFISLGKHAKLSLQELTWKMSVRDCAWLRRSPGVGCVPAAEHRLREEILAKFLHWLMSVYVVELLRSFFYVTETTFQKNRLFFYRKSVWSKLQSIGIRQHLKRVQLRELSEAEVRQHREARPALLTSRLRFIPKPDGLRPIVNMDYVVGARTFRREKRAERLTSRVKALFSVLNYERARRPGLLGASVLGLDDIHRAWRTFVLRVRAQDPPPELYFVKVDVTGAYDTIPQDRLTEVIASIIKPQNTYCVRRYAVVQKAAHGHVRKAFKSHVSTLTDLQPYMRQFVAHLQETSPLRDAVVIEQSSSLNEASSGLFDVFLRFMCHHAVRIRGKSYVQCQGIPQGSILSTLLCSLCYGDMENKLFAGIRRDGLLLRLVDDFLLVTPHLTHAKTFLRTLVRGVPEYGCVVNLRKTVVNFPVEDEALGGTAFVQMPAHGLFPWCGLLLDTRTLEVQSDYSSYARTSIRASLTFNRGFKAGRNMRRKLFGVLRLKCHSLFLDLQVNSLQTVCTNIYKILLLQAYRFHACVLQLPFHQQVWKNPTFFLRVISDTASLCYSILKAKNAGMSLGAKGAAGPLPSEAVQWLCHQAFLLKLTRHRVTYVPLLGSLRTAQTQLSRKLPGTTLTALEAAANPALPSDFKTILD
T1 sequence (O60832 whole entry partner): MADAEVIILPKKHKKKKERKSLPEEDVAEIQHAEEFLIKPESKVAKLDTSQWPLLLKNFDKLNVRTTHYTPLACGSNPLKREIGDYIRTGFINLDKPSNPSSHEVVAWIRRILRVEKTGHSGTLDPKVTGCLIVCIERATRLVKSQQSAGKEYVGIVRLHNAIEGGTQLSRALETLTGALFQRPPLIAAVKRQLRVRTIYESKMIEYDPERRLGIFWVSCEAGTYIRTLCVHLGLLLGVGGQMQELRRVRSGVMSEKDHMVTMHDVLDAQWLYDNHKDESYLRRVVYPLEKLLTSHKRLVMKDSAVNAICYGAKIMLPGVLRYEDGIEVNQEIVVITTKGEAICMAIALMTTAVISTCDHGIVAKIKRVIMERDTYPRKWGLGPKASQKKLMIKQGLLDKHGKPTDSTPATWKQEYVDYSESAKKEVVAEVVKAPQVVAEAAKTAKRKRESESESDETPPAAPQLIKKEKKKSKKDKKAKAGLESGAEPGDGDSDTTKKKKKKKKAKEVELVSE
T1 sequence (Q9NPE3 whole entry partner): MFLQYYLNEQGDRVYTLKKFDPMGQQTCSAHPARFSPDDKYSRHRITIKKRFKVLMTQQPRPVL
T1 sequence (Q9NX24 whole entry partner): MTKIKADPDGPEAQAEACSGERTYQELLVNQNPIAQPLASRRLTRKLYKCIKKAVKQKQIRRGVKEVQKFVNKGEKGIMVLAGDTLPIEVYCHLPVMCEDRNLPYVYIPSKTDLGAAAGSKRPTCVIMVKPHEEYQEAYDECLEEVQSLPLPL
T1 sequence (Q9NY12 whole entry partner): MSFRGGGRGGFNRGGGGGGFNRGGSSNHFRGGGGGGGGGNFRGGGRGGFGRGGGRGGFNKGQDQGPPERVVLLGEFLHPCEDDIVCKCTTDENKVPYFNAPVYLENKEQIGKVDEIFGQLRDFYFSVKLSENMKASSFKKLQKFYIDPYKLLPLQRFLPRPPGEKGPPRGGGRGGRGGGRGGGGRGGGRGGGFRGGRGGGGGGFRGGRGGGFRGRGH
Description: Telomerase immunopurification: 293T TERC-null cells were transfected as described above with 3×HA-TERT and TERC/EGFP in 10-cm diameter dishes with reagents scaled up proportional to cell growth area. Two days after transfection, cells were harvested, washed once in PBS, and lysed in TRAPezeTM1×CHAPS Lysis Buffer (Roche) supplemented with RNasin Plus (Promega) and HALT protease inhibitor cocktail (Thermo Fisher), followed by incubation on ice for 30 minutes and precipitation of insoluble material by centrifugation. Immunoprecipitation was performed as described previously with minor modifications. Briefly, 75 μl of anti-HA magnetic beads (Sigma-Aldrich, SAE0197, mouse IgG1 monoclonal antibody, Clone HA-7, 50% beads by volume) were added to clarified lysates followed by 2 hours incubation at 4° C. while rotating. […] Images were quantified using ImageJ as follows. For total telomerase activity measurement (FIG. 25f), telomerase product signal in a lane was quantified and normalized to the loading control band signal within the same lane. […] For the analysis of telomerase repeat intensity (FIG. 25x), the signal of each repeat (defined as the three consecutive intense bands in the laddering pattern, as indicated in FIG. 25d), was quantified and first normalized to the loading control band signal for that lane. […]

T-free telomerase = target: T2, T-free telomerase (Homo sapiens, UniProt O14746); experiment: Modified GGAAAG TRAP assay on T-free super-telomerase extracts; conditions: increasing dTTP levels
T2 construct: expressed in transfected cells; host or cells: TERC-null 293T cells transfected with TERT and T-free TERC vectors
T2 sequence (O14746 whole entry): as the sequence (O14746 whole entry) above
T2 sequence (O60832 whole entry partner): as the sequence (O60832 whole entry partner) above
T2 sequence (Q9NPE3 whole entry partner): as the sequence (Q9NPE3 whole entry partner) above
T2 sequence (Q9NX24 whole entry partner): as the sequence (Q9NX24 whole entry partner) above
T2 sequence (Q9NY12 whole entry partner): as the sequence (Q9NY12 whole entry partner) above
Description: (§1) TRAP assay: cell extracts for TRAP assays were made using TRAPeze™1×CHAPS Lysis Buffer (Roche) supplemented with RNASEin (Promega). Standard TRAP reactions (in FIG. 25a) were performed as described, with cell input normalized across samples using the Bio-Rad DC assay. TRAP assays were modified to enable unique dNTP concentrations in telomerase reactions from PCR reactions (FIG. 25) as follows: reactions were assembled with 1×TRAP buffer (20 mM Tris-HCl, pH 8.3; 1.5 mM MgCl2; 63 mM KCl; 0.05% Tween 20; 1 mM EGTA), TS, ACX, TNST, and NT primers as described (see Primers/Oligos below), dNTPs were added at physiologic concentrations (dATP 24 μM, dGTP 5.2 μM, dCTP 29 μM, dTTP 37 μM) unless otherwise mentioned in the figure legend, followed by telomerase extracts. TRAP assays were modified to detect GGAAAG repeats using the following primers: TS GGAAAG, TNST GGAAAG, ACX GGAAAG, and NT (see Primers/Oligos below). After addition of telomerase extracts, reactions were incubated for 30 minutes at 30° C. followed by heat inactivation at 95° C. for 5 minutes. […] Images were quantified for a given lane using ImageJ by measuring the signal of the telomerase repeat sized products divided by the signal of the internal control band for the lane, normalized to the same ratio for the untreated sample(s) in a given experiment. […]

telomerase = target: T3, telomerase (Homo sapiens, UniProt O14746); experiment: Modified TRAP assay with exogenous dTTP on super-telomerase extracts; conditions: increasing levels of exogenous dTTP
T3 construct: expressed in transfected cells; host or cells: TERC-null 293T cells transfected with TERT and TERC expression vectors
T3 sequence (O14746 whole entry): as the sequence (O14746 whole entry) above
T3 sequence (O60832 whole entry partner): as the sequence (O60832 whole entry partner) above
T3 sequence (Q9NPE3 whole entry partner): as the sequence (Q9NPE3 whole entry partner) above
T3 sequence (Q9NX24 whole entry partner): as the sequence (Q9NX24 whole entry partner) above
T3 sequence (Q9NY12 whole entry partner): as the sequence (Q9NY12 whole entry partner) above
Description: as §1

- T-free telomerase activity, levels higher than without dTTP ([1]; at a concentration of 25 μM dTTP): approximately 50%
- telomerase activity (telomerase): enhanced telomerase activity
Structure (SMILES): Cc1cn([C@H]2C[C@H](O)[C@@H](COP(=O)(O)OP(=O)(O)OP(=O)(O)O)O2)c(=O)[nH]c1=O [dTTP, dT triphosphate]
- T-free telomerase activity ([1]; incorporation of α-32P-dATP, dTTP added): enhanced T-free telomerase activity in a dose-dependent manner
- T-free telomerase activity (T-free telomerase): increased T-free telomerase activity with increasing dTTP levels
